Assay results taken from patent EP4748844A1, “AZETIDINE COMPOUND AND MEDICAL USE THEREOF” (SHANGHAI INSTITUTE OF MATERIA MEDICA, CHINESE ACADEMY OF …, priority 2023, dated 2025).

Experiments:
[1] = system: ISG gene expression induced by MSA-2 in human THP1-Dual cells; test: Inhibition of MSA-2-induced ISG gene expression in human THP1-Dual cells (QUANTI-Luc); format: cell-based; settings: STING agonist MSA-2 10 µM, incubated for 24 hours
Method: 10 µL of compound diluted with PBS/physiological saline was added to each well of a 96 well cell culture plate. The STING agonist was MSA-2, which was added to the counted cell suspension at a final concentration of 10 µM. For the control group without compounds, 10 µL of PBS/physiological saline containing 2% DMSO was added. 3 replicate wells were set in each group. THP1-Dual cells were counted and adjusted to a cell concentration of 4×10^5/mL, and 190 µL of cells containing STING agonist were added to each well for incubation. Therefore, the final volume of each test well was 200 µL, the content of DMSO was 0.1%, and the final concentration of the compound tested was 10/3.3/1.1/0.4/0.13/0.04/0.013/0.004 µM, incubated for 24 hours. In addition, 190 µL of cells without STING agonist and 10 µL of physiological saline containing 2% DMSO were added to the blank group. 3 replicate wells were set in each group.
After 24 hours, 20 µL of culture medium for THP1-Dual cells was taken from each well and transferred to a new 96 well plate with photopermeable bottom. 50 µL of the luciferase detection reagent QUANTI-Luc™ was added, and the […] was immediately measured (avoid light). Result analysis:Inhibition rate (%) = (Con(Lum)−Treated(Lum))/Con(Lum) × 100% [formula]
(§1) The IC50 calculation of inhibitors was implemented using the Graphpad Prism 8 software's calculation method log (inhibitor) vs. response - Variable slope (four parameters), with a constrain interval of 0-100.

[2] = system: DMXAA induced ISG gene expression in mouse RAW-Lucia cells; test: Inhibition of DMXAA-induced ISG gene expression in mouse RAW-Lucia cells (QUANTI-Luc); format: cell-based; settings: STING agonist DMXAA 50 µM, incubated for 24 hours
Method: 10 µL of compound diluted with PBS/physiological saline was added to each well of a 96 well cell culture plate. The STING agonist was DMXAA, which was added to the counted cell suspension at a final concentration of 50 µM. For the control group without compounds, 10 µL of PBS/physiological saline containing 2% DMSO was added. 3 replicate wells were set in each group. RAW-Lucia cells were counted and adjusted to a cell concentration of 4×10^5/mL, and […] of cells were added to each well for incubation. Therefore, the final volume of each test well was 200 µL, the content of DMSO was 0.1%, and the final concentration of the compound tested was 10/3.3/1.1/0.4/0.13/0.04/0.013/0.004 µM. The final concentration of STING agonist DMXAA was 50 µM. The mixture was incubated for 24 hours. In addition, 200 µL of culture medium was added to the blank group. 3 replicate wells were set in each group.
After 24 hours, 20 µL of culture medium was taken from each well and transferred to a new 96 well plate with photopermeable bottom. 50 µL of the luciferase detection reagent QUANTI-Luc™ was added, and the […] was immediately measured (avoid light).
Result analysis: Inhibition rate (%) = (Con(Lum)−Treated(Lum))/Con(Lum) × 100% [formula]
as §1

| Compound | IC50 [1] [nM] | IC50 [2] [nM] |
| --- | --- | --- |
| 1-((4-chlorothien-3-yl)methyl)-N-(1H-indol-3-yl)-3,3-dimethyl-2-oxoindolin-6-carboxamide [Example I-89] | 119 | – |
| O=C(Nc1c[nH]c2ccccc12)c1cc2c(s1)SCC(=O)N2Cc1cccs1 [Example I-114, N-(1H-indol-3-yl)-2-oxo-1-(thien-2-ylmethyl)-2,3-dihydro-1H-thieno[2,3-b][1,4]thiazin-6-carboxamide] | 164 | – |
| CCc1ccc(NC(=O)Nc2c[nH]c3ccccc23)cc1 [Example H151, H-151, reference compound] | 635 | 271 |
| CC1(C)C(=O)N(Cc2cccc3ccoc23)c2cc(C(=O)Nc3c[nH]c4ccc(F)cc34)ccc21 [Example I-126, 1-(benzofuran-7-ylmethyl)-N-(5-fluoro-1H-indol-3-yl)-3,3-dimethyl-2-oxoindolin-6-carboxamide] | 58.5 | 58.5 |
| O=C(Nc1c[nH]c2cc(F)c(F)cc12)c1cc2c(s1)SCC(=O)N2Cc1cc(F)cc(C(F)(F)F)c1 [Example I-125, N-(5,6-difluoro-1H-indol-3-yl)-1-(3-fluoro-5-(trifluoromethyl)benzyl)-2-oxo-2,3-dihydro-1H-thieno[2,3-b][1,4]thiazin-6-carboxamide] | 76.6 | 5.26 |
| O=C(Nc1c[nH]c2ccc(Cl)cc12)c1cc2c(s1)SCC(=O)N2Cc1cc(F)cc(C(F)(F)F)c1 [Example I-123, N-(5-chloro-1H-indol-3-yl)-1-(3-fluoro-5-(trifluoromethyl)benzyl)-2-oxo-2,3-dihydro-1H-thieno[2,3-b][1,4]thiazin-6-carboxamide] | 69 | 5.71 |
| O=C(Nc1c[nH]c2ccccc12)c1cc2c(s1)SCC(=O)N2Cc1ccc2occc2c1 [Example I-113, 1-(benzofuran-5-ylmethyl)-N-(1H-indol-3-yl)-2-oxo-2,3-dihydro-1H-thieno[2,3-b][1,4]thiazin-6-carboxamide] | 39.4 | 27.9 |
| CC1(C)C(=O)N(Cc2ccc3c(c2)OCO3)c2cc(C(=O)Nc3c[nH]c4ccccc34)ccc21 [Example I-92, 1-(benzo[d][1,3]dihydroxyl-5-ylmethyl)-N-(1H-indol-3-yl)-3,3-dimethyl-2-oxoindol-6-carboxamide] | 28.8 | 94 |
| CC1(C)C(=O)N(Cc2cccc3ccoc23)c2cc(C(=O)Nc3c[nH]c4ccccc34)ccc21 [Example I-97, 1-(benzofuran-7-ylmethyl)-N-(1H-indol-3-yl)-3,3-dimethyl-2-oxoindolin-6-carboxamide] | 3.3 | 17.1 |
| CC1(C)C(=O)N(Cc2cc(F)cc(C(F)(F)F)c2)c2cc(C(=O)Nc3c[nH]c4ccccc34)sc21 [Example I-88, 4-(3-fluoro-5-(trifluoromethyl)benzyl)-N-(1H-indol-3-yl)-6,6-dimethyl-5-oxo-5,6-dihydro-4H-thieno[3,2-b]pyrrol-2-carboxamide] | 143 | – |
| CC1(C)C(=C=O)N(CCc2ccccc2)c2cc(C(=O)Nc3c[nH]c4ccc(F)cc34)ccc21 [Example I-107, N-(5-fluoro-1H-indol-3-yl)-3,3-dimethyl-2-carbonyl-1-phenethylindolin-6-carboxamide] | 147 | 2.72 |
| CC1(C)C(=O)N(Cc2cc(F)cc(C(F)(F)F)c2)c2cc(C(=O)Nc3c[nH]c4ccccc34)ccc21 [Example I-104] | 33.1 | 8.69 |
| CC1(C)C(=O)N(Cc2cccc3ccoc23)c2cc(C(=O)Nc3c[nH]c4ccc(Cl)cc34)ccc21 [Example I-128, 1-(benzofuran-7-ylmethyl)-N-(5-chloro-1H-indol-3-yl)-3,3-dimethyl-2-oxoindolin-6-carboxamide] | 39.4 | 39.4 |
| CC1(C)C(=O)N(Cc2csc3ccccc23)c2cc(C(=O)Nc3c[nH]c4ccccc34)ccc21 [Example I-109, 1-(benzo[b]thien-3-ylmethyl)-N-(1H-indol-3-yl)-3,3-dimethyl-2-indolin-6-carboxamide] | 32.1 | 11.8 |
| O=C(Nc1c[nH]c2ccccc12)c1cc2c(s1)SCC(=O)N2Cc1ccco1 [Example I-118, 1-(furan-2-ylmethyl)-N-(1H-indol-3-yl)-2-oxo-2,3-dihydro-1H-thieno[2,3-b] [1,4]thiazin-6-carboxamide] | 232 | 45.2 |
| CC1(C)C(=O)N(Cc2ccccc2-c2ccccc2)c2cc(C(=O)Nc3c[nH]c4ccccc34)ccc21 [Example I-95, 1-([1,1'-biphenyl]-2-ylmethyl)-N-(1H-indol-3-yl)-3,3-dimethyl-2-oxoindolin-6-carboxamide] | 228 | – |
| CC1(C)C(=O)N(Cc2ccc3[nH]ccc3c2)c2cc(C(=O)Nc3c[nH]c4ccccc34)ccc21 [Example I-94, 1-(indol-5-ylmethyl)-N-(1H-indol-3-yl)-3,3-dimethyl-2-oxoindolin-6-carboxamide] | 106 | – |
| CC1(C)C(=O)N(Cc2cccc3ccoc23)c2cc(C(=O)Nc3c[nH]c4cc(F)c(F)cc34)ccc21 [Example I-127, 1-(benzofuran-7-ylmethyl)-N-(5,6-difluoro-1H-indol-3-yl)-3,3-dimethyl-2-oxoindolin-6-carboxamide] | 291 | – |
| CC1(C)C(=O)N(Cc2ccc3occc3c2)c2cc(C(=O)Nc3c[nH]c4ccccc34)ccc21 [Example I-93, 1-(benzofuran-5-ylmethyl)-N-(1H-indol-3-yl)-3,3-dimethyl-2-oxoindolin-6-carboxamide] | 74.8 | – |
| O=C(Nc1c[nH]c2ccccc12)c1cc2c(s1)SCC(=O)N2CC1CCOCC1 [Example I-119, N-(1H-indol-3-yl)-2-oxo-1-((tetrahydro-2H-pyran-4-yl)methyl)-2,3-dihydro-1H-thieno[2,3-b][1,4]thiazin-6-carboxamide] | – | 45.5 |
| CC1(C)C(=O)N(Cc2coc(Cl)c2)c2cc(C(=O)Nc3c[nH]c4ccccc34)sc21 [Example I-91, 4-((5-chlorofuran-3-yl)methyl)-N-(1H-indol-3-yl)-6,6-dimethyl-5-oxo-5,6-dihydro-4H-thieno[3,2-b]pyrrol-2-carboxamide] | 117 | – |
| CC1(C)C(=O)N(CC2CN(c3cc(F)cc(C(F)(F)F)c3)C2)c2cc(C(=O)Nc3c[nH]c4ccc(F)cc34)ccc21 [Example I-28] | – | 62 |
| CC1(C)C(=O)N(Cc2csc(C(F)(F)F)c2)c2cc(C(=O)Nc3c[nH]c4ccccc34)sc21 [Example I-90, N-(1H-indol-3-yl)-6,6-dimethyl-5-oxo-4-((5-(trifluoromethyl)thien-3-yl)methyl)-5,6-dihydro-4H-thieno[3,2-b]pyrrol-2-carboxamide] | 98 | – |
| CC1(C)C(=O)N(Cc2ccoc2)c2cc(C(=O)Nc3c[nH]c4ccccc34)sc21 [Example I-86, 4-(furan-3-ylmethyl)-N-(1H-indol-3-yl)-6,6-dimethyl-5-oxo-5,6-dihydro-4H-thieno[3,2-b]pyrrol-2-carboxamide] | 221 | – |
| O=C(Nc1c[nH]c2ccccc12)c1cc2c(s1)SCC(=O)N2CC1CC1 [Example I-116, 1-(cyclopropylmethyl)-N-(1H-indol-3-yl)-2-oxo-2,3-dihydro-1H-thieno[2,3-b][1,4]thiazin-6-carboxamide] | 206 | – |
| CC1(C)C(=O)N(Cc2ccccc2)c2cc(C(=O)Nc3c[nH]c4ccccc34)sc21 [Example I-87, 4-benzyl-N-(1H-indol-3-yl)-6,6-dimethyl-5-oxo-5,6-dihydro-4H-thieno[3,2-b]pyrrol-2-carboxamide] | 149 | – |
